The values that follow come from patent US10065970B2 (Genentech, Inc., priority 2015, dated 2018).

A value given as a limit tells only on which side of the number the result lay.

Sequence of PI3Kα (alpha) (P42336 whole entry): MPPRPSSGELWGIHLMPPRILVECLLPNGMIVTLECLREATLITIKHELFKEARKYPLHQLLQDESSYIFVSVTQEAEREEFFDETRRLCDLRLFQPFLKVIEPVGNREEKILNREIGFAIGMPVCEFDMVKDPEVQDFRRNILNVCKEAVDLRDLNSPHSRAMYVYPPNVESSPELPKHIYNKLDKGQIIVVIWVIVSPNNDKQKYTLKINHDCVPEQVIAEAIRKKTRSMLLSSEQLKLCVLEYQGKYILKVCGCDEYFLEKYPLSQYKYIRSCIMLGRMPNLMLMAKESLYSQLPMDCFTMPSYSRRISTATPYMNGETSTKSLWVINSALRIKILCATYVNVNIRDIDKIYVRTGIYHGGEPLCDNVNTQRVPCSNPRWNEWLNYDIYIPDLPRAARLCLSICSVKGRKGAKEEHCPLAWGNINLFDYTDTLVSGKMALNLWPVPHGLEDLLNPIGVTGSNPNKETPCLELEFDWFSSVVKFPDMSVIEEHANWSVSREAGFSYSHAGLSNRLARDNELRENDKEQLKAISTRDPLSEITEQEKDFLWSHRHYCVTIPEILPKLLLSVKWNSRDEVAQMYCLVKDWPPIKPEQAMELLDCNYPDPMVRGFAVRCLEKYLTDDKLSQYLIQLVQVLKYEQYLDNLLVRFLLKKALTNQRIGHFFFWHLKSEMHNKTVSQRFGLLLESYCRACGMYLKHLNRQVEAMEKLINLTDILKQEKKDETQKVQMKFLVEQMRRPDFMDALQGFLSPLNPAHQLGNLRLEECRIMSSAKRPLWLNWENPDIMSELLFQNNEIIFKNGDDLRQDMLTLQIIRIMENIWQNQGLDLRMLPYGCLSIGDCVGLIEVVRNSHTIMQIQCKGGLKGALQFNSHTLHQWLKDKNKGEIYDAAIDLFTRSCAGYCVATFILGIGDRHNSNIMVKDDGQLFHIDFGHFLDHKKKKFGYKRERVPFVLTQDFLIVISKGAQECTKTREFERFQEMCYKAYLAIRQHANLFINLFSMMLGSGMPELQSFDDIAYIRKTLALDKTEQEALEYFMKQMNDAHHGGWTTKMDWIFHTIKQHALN
Sequence of PI3Kα (alpha) (P27986 whole entry partner): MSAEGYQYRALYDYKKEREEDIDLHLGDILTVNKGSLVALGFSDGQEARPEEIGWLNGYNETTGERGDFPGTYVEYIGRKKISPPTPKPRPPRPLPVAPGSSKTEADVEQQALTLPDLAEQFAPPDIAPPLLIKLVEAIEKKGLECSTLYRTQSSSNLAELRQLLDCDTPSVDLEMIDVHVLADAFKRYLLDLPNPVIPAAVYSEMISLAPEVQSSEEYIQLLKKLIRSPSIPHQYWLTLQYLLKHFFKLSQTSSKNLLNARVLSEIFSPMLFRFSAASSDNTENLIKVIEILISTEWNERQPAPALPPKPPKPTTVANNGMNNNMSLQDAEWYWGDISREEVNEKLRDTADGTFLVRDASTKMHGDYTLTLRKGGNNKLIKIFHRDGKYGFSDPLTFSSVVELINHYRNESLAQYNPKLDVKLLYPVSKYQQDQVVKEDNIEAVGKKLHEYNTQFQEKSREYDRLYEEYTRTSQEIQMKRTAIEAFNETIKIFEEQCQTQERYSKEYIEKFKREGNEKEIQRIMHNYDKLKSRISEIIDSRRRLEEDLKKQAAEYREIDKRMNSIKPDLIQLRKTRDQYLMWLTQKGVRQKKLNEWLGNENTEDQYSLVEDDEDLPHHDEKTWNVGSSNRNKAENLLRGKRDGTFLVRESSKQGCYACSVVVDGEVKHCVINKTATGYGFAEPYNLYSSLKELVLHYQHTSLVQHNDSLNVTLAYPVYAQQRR

The target of the first assay is PI3Kα (alpha) (Homo sapiens (Human), UniProt P42336). As to the kind of experiment: p110α (alpha) PI3K Binding Assay (ADP-Glo lipid kinase reaction). The class given is biochemical. To be noted: PI3K alpha 0.2 nM, ATP 40 μM, PIP2:3PS 50 μM, 120 min, room temperature; Ki by Morrison Equation; read-out: PI3Kα-(alpha) ATP (Ki) micromolar. The method, boiled down:
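Enzyme with PIP2:3PS lipid substrate and ATP/MgCl2 in 50 mM HEPES, 50 mM NaCl, 3 mM MgCl2, 0.01% BSA, 1% DMSO, 120 min at room temperature. ADP formed detected by ADP-Glo luminescence. Ki from 10-point dose-response curves via the Morrison equation.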
For orientation: In ADP-Glo the light output rises with the ADP produced.
As usually defined, the Ki is a measure of affinity in units of concentration, obtained from inhibition or displacement. For the molecule `C[C@@H](Oc1cc2c3c(c1)nc(-c1cc(F)c4oc(N)nc4c1)n3CCCO2)C(N)=O` [Example 263, (R)-2-((1-(2-Amino-7-fluorobenzo[d]oxazol-5-yl)-8,9-dihydro-7H-6-oxa-2,9a-diazabenzo[cd]azulen-4-yl)oxy)propanamide], the Ki stood at 0.346 nM.

For the molecule `NC(=O)[C@H](Oc1cc2c3c(c1)nc(-c1ccc(-c4ncn[nH]4)c(F)c1)n3CCCCO2)C1CC1` (single isomer, unassigned) [Example 306], the Ki turned out to be 0.72 nM.

As for `NC(=O)[C@@H]1CCCN1c1cc2c3c(c1)nc(-c1ccc4c(c1)N1CCC(=O)N=C1O4)n3CCCO2` [Example 220, (S)-1-(1-(2-Oxo-3,4-dihydro-2H-benzo[4,5]oxazolo[3,2-a]pyrimidin-7-yl)-8,9-dihydro-7H-6-oxa-2,9a-diazabenzo[cd]azulen-4-yl)pyrrolidine-2-carboxamide], the Ki was 2.92 nM.

For `Nc1nc2cc(-c3nc4cc(N[C@H]5C[C@H](F)C5)cc5c4n3CCCO5)ccc2o1` (single isomer, unassigned) [Example 202, 1-(2-Aminobenzo[d]oxazol-5-yl)-N-((1r,3r)-3-fluorocyclobutyl)-8,9-dihydro-7H-6-oxa-2,9a-diazabenzo[cd]azulen-4-amine], the Ki was determined as 0.563 nM.

On to `NC(=O)[C@@H](Nc1cc2c3c(c1)nc(-c1ccc4[nH]c(=O)oc4c1)n3CCCO2)C1CC1` [Example 155, (S)-2-Cyclopropyl-2-((1-(2-oxo-2,3-dihydrobenzo[d]oxazol-6-yl)-8,9-dihydro-7H-6-oxa-2,9a-diazabenzo[cd]azulen-4-yl)amino)acetamide], for which the Ki was 78 nM.

With `NC(=O)[C@@H](Nc1cc2c3c(c1)nc(-c1ccnc4[nH]ncc14)n3CCCO2)C1CC1` [Example 169, (S)-2-((1-(1H-Pyrazolo[3,4-b]pyridin-4-yl)-8,9-dihydro-7H-6-oxa-2,9a-diazabenzo[cd]azulen-4-yl)amino)-2-cyclopropylacetamide], the Ki came to 3.92 nM.

As to `NC(=O)[C@@H](Nc1cc2c3c(c1)nc(-c1ccn4nccc4n1)n3CCCO2)C1CC1` [Example 228, (S)-2-Cyclopropyl-2-((1-(pyrazolo[1,5-a]pyrimidin-5-yl)-8,9-dihydro-7H-6-oxa-2,9a-diazabenzo[cd]azulen-4-yl)amino)acetamide], the Ki amounted to 2.66 nM.

Consider `NC(=O)[C@@H](Nc1cc2c3c(c1)nc(-c1ccnc4sccc14)n3CCCO2)C1CC1` [Example 177, (S)-2-Cyclopropyl-2-((1-(thieno[2,3-b]pyridin-4-yl)-8,9-dihydro-7H-6-oxa-2,9a-diazabenzo[cd]azulen-4-yl)amino)acetamide], for which the Ki was found to be 234 nM.

With `NC(=O)[C@@H](Nc1cc2c3c(c1)nc(-c1ccc4ncsc4c1)n3CCCO2)C1CC1` [Example 178, (S)-2-((1-(Benzo[d]thiazol-6-yl)-8,9-dihydro-7H-6-oxa-2,9a-diazabenzo[cd]azulen-4-yl)amino)-2-cyclopropylacetamide], the Ki was found to be 32.2 nM.

On to `Cc1cc(-c2nc3cc(N[C@H](C(N)=O)C4CC4)cc4c3n2CCCO4)nc(CO)n1` [Example 123, (S)-2-Cyclopropyl-2-((1-(2-(hydroxymethyl)-6-methylpyrimidin-4-yl)-8,9-dihydro-7H-6-oxa-2,9a-diazabenzo[cd]azulen-4-yl)amino)acetamide], for which the Ki was found to be 45 nM.

With `COC[C@@](C)(C(N)=O)n1cc(-c2cc3c4c(c2)nc(-c2ccc5oc(N)nc5c2)n4CCCO3)cn1` (single isomer, unassigned) [Example 233], the Ki stood at 0.119 nM.

Consider `NC(=O)[C@@H](Nc1cc2c3c(c1)nc(-c1ccc4sc(N)nc4c1)n3CCCCO2)C1CC1` [Example 246, (S)-2-((1-(2-Aminobenzo[d]thiazol-5-yl)-7,8,9,10-tetrahydro-6-oxa-2,10a-diazacycloocta[cd]inden-4-yl)amino)-2-cyclopropylacetamide], for which the Ki was less than 0.02 nM.

`NC(=O)[C@@H](Nc1cc2c3c(c1)nc(-c1ccc4oc(N)nc4c1)n3CCO2)C1CC1` [Example 208, (S)-2-((2-(2-Aminobenzo[d]oxazol-5-yl)-3,4-dihydro-5-oxa-1,2a-diazaacenaphthylen-7-yl)amino)-2-cyclopropylacetamide]: the Ki was less than 0.02 nM.

Take `C[C@H](Oc1cc2c3c(c1)nc(-c1cc(F)c4nc(N)sc4c1)n3CCCCO2)C(N)=O` [Example 242, (S)-2-((1-(2-Amino-4-fluorobenzo[d]thiazol-6-yl)-7,8,9,10-tetrahydro-6-oxa-2,10a-diazacycloocta[cd]inden-4-yl)oxy)propanamide]: the Ki is less than 0.02 nM.

As to `CO[C@@H]1CCN(c2cc3c4c(c2)nc(-c2ccc5oc(N)nc5c2)n4CCCCO3)[C@@H]1C(N)=O` [Example 310, (2S,3R)-1-(1-(2-Aminobenzo[d]oxazol-5-yl)-7,8,9,10-tetrahydro-6-oxa-2,10a-diazacycloocta[cd]inden-4-yl)-3-methoxypyrrolidine-2-carboxamide], the Ki came out at 0.171 nM.

Turning to `C[C@H](Oc1cc2c3c(c1)nc(-c1ccc4nc(N)sc4n1)n3CCCCO2)C(N)=O` [Example 265, (S)-2-((1-(2-Aminothiazolo[5,4-b]pyridin-5-yl)-7,8,9,10-tetrahydro-6-oxa-2,10a-diazacycloocta[cd]inden-4-yl)oxy)propanamide], the Ki is less than 0.02 nM.

In the case of `NC(=O)[C@@H](Nc1cc2c3c(c1)nc(-c1ccnc4[nH]cnc14)n3CCCO2)C1CC1` [Example 176, (S)-2-((1-(3H-Imidazo[4,5-b]pyridin-7-yl)-8,9-dihydro-7H-6-oxa-2,9a-diazabenzo[cd]azulen-4-yl)amino)-2-cyclopropylacetamide], the Ki stood at 326 nM.

Take `N#Cc1cccc(-c2nc3cc(N[C@H](C(N)=O)C4CC4)cc4c3n2CCCO4)c1` [Example 118, (S)-2-((1-(3-Cyanophenyl)-8,9-dihydro-7H-6-oxa-2,9a-diazabenzo[cd]azulen-4-yl)amino)-2-cyclopropylacetamide]: the Ki is 561 nM.

For `NC(=O)[C@@H](Nc1cc2c3c(c1)nc(-c1ccc4nc(N)sc4c1)n3CCCO2)C1CC1` [Example 170, (S)-2-((1-(2-Aminobenzo[d]thiazol-6-yl)-8,9-dihydro-7H-6-oxa-2,9a-diazabenzo[cd]azulen-4-yl)amino)-2-cyclopropylacetamide], the inhibition constant Ki is 0.614 nM.

Consider `C[C@@H](C(N)=O)N(C)c1cc2c3c(c1)nc(-c1ccc4oc(N)nc4c1)n3CCCCO2` [Example 254, (S)-2-((1-(2-Aminobenzo[d]oxazol-5-yl)-7,8,9,10-tetrahydro-6-oxa-2,10a-diazacycloocta[cd]inden-4-yl)(methyl)amino)propanamide], for which the Ki was less than 0.02 nM.

`Nc1nc2cc(-c3nc4cc(NC5CC(F)(F)C5)cc5c4n3CCCO5)ccc2o1` [Example 192, 1-(2-Aminobenzo[d]oxazol-5-yl)-N-(3,3-difluorocyclobutyl)-8,9-dihydro-7H-6-oxa-2,9a-diazabenzo[cd]azulen-4-amine]: the Ki came out at 1.64 nM.

On to `NC(=O)[C@H](C1CC1)n1cc(-c2cc3c4c(c2)nc(-c2ccc5oc(N)nc5c2)n4CCCO3)cn1` (single isomer, unassigned) [Example 230], for which the Ki is 0.309 nM.

For the molecule `C[C@H](Nc1cc2c3c(c1)nc(N1CCC(CO)CC1)n3CCCO2)C(N)=O` [Example 140, (S)-2-[1-(4-Hydroxymethylpiperidin-1-yl)-8,9-dihydro-7H-6-oxa-2,9a-diazabenzo[cd]azulen-4-ylamino]propionamide], the Ki is 681 nM.

As for `NC(=O)[C@@H](Nc1cc2c3c(c1)nc(-c1ccnnc1)n3CCCO2)C1CC1` [Example 125, (S)-2-Cyclopropyl-2-((1-(pyridazin-4-yl)-8,9-dihydro-7H-6-oxa-2,9a-diazabenzo [cd]azulen-4-yl)amino)acetamide], the Ki came to 221 nM.

`C[C@H](Oc1cc2c3c(c1)nc(-c1ccc4oc(N)nc4c1F)n3CCCCO2)C(N)=O` [Example 241, (S)-2-((1-(2-Amino-4-fluorobenzo[d]oxazol-5-yl)-7,8,9,10-tetrahydro-6-oxa-2,10a-diazacycloocta[cd]inden-4-yl)oxy)propanamide]: the Ki was less than 0.02 nM.

`Nc1nc2cc(-c3nc4cc(-c5cnn(CCO)c5)cc5c4n3CCCO5)ccc2o1` [Example 152, 2-(4-(1-(2-Aminobenzo[d]oxazol-5-yl)-8,9-dihydro-7H-6-oxa-2,9a-diazabenzo[cd]azulen-4-yl)-1H-pyrazol-1-yl)ethanol]: the Ki is 0.638 nM.

As for `CC[C@H](C(N)=O)n1cc(-c2cc3c4c(c2)nc(-c2ccc5oc(N)nc5c2)n4CCCO3)cn1` [Example 216, (R)-2-(4-(1-(2-Aminobenzo[d]oxazol-5-yl)-8,9-dihydro-7H-6-oxa-2,9a-diazabenzo[cd]azulen-4-yl)-1H-pyrazol-1-yl)butanamide], the Ki was determined as 0.214 nM.

On to `OCc1cnc2cc(-c3nc4cc(Br)cc5c4n3CCCO5)ccc2n1` [Example 198, (6-(4-Bromo-8,9-dihydro-7H-6-oxa-2,9a-diazabenzo[cd]azulen-1-yl)quinoxalin-2-yl)methanol], for which the Ki came out at 677 nM.

The same assay, now with this note: read-out: PI3Kα-(alpha) ATP (Ki) micromolar.
Consider `Nc1nc2cc(-c3nc4cc(Br)cc5c4n3CCCCO5)ccc2o1` [Example 172, 5-(4-bromo-7,8,9,10-tetrahydro-6-oxa-2,10a-diazacycloocta[cd]-inden-1-yl)benzo[d]oxazol-2-amine], for which the Ki amounted to 0.501 nM.

Regarding `CC[C@@H](C(N)=O)n1cc(-c2cc3c4c(c2)nc(-c2ccc5oc(N)nc5n2)n4CCCO3)cn1` (single isomer, unassigned) [Example 311], the Ki is 0.031 nM.

Take `C[C@H]1CCN(c2cc3c4c(c2)nc(-c2ccc5oc(N)nc5c2)n4CCCO3)[C@@H]1C(N)=O` [Example 308, (2S,3S)-1-(1-(2-Aminobenzo[d]oxazol-5-yl)-8,9-dihydro-7H-6-oxa-2,9a-diazabenzo[cd]azulen-4-yl)-3-methylpyrrolidine-2-carboxamide]: the Ki stood at 0.627 nM.
